System: 186277-243-T-J2-PDC complex spheroid viability
Test: Anticancer human tumor 186277-243-T-J2-PDC patient-derived colon adenocarcinoma cell line growth inhibition [GQUAD]
Settings: for IC50: curve of first compound; for viability, T/C: stronger effect = lower value
Outline: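 Tumor cells were grown as complex spheroids with HUVEC endothelial cells and mesenchymal stem cells as stroma. G-quadruplex stabilizers were combined with targeted agents over half-log dilutions from near the clinical Cmax, or from 10 microM.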

[1] = second compound 0.0316 µM, first compound 0.0316 µM
[2] = second compound 0.0316 µM, first compound 0.1 µM
[3] = second compound 0.0316 µM, first compound 0.316 µM
[4] = second compound 0.0316 µM, first compound 1 µM
[5] = second compound 0.0316 µM, first compound 3.16 µM
[6] = second compound 0.0316 µM, first compound 10 µM
[7] = second compound 0.1 µM, first compound 0.0316 µM
[8] = second compound 0.1 µM, first compound 0.1 µM
[9] = second compound 0.1 µM, first compound 0.316 µM
[10] = second compound 0.1 µM, first compound 1 µM
[11] = second compound 0.1 µM, first compound 3.16 µM
[12] = second compound 0.1 µM, first compound 10 µM
[13] = second compound 0.316 µM, first compound 0.0316 µM
[14] = second compound 0.316 µM, first compound 0.1 µM
[15] = second compound 0.316 µM, first compound 0.316 µM
[16] = second compound 0.316 µM, first compound 1 µM
[17] = second compound 0.316 µM, first compound 3.16 µM
[18] = second compound 0.316 µM, first compound 10 µM
[19] = second compound 1 µM, first compound 0.0316 µM
[20] = second compound 1 µM, first compound 0.1 µM
[21] = second compound 1 µM, first compound 0.316 µM
[22] = second compound 1 µM, first compound 1 µM
[23] = second compound 1 µM, first compound 3.16 µM
[24] = second compound 1 µM, first compound 10 µM
[25] = second compound 3.16 µM, first compound 0.0316 µM
[26] = second compound 3.16 µM, first compound 0.1 µM
[27] = second compound 3.16 µM, first compound 0.316 µM
[28] = second compound 3.16 µM, first compound 1 µM
[29] = second compound 3.16 µM, first compound 3.16 µM
[30] = second compound 3.16 µM, first compound 10 µM
[31] = second compound 10 µM, first compound 0.0316 µM
[32] = second compound 10 µM, first compound 0.1 µM
[33] = second compound 10 µM, first compound 0.316 µM
[34] = second compound 10 µM, first compound 1 µM
[35] = second compound 10 µM, first compound 3.16 µM
[36] = second compound 10 µM, first compound 10 µM
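Further: spheroids exposed to drugs for 7 days.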
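Wherever viability, T/C is given: 100% = DMSO vehicle control viability.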

For `COc1cccc2c1C(=O)c1c(O)c3c(c(O)c1C2=O)CC(O)(C(=O)CO)CC3OC1CC(N)C(O)C(C)O1` (stereo not drawn) + Cc1cnc(CNC(=O)c2c(=O)c3ccc(N4CCCN(C)CC4)nc3n3c2sc2ccccc23)cn1, the IC50 (second compound 0.0316 µM) was 433 nM, the IC50 (second compound 0.1 µM) was 634 nM and the IC50 (second compound 0.316 µM) was 350 nM. For the same molecule, the IC50 (second compound 1 µM) was under 31.6 nM, the IC50 (second compound 3.16 µM) was under 31.6 nM and the IC50 (second compound 10 µM) was under 31.6 nM. It also gave a viability, T/C [1] of 113%, a viability, T/C [2] of 84.8% and a viability, T/C [3] of 65.2%. The viability, T/C [4] was 24.3%, the viability, T/C [5] was 1.89% and the viability, T/C [6] was 0.15%. For the same molecule, the viability, T/C [7] was 86.5%, the viability, T/C [8] was 78.3% and the viability, T/C [9] was 77%. For the same molecule, the viability, T/C [10] was 32.6%, the viability, T/C [11] was 1.48% and the viability, T/C [12] was 0.63%. The viability, T/C [13] was 59.4%, the viability, T/C [14] was 56.3% and the viability, T/C [15] was 52.3%. The viability, T/C [16] was 23.8%, the viability, T/C [17] was 0.99% and the viability, T/C [18] was 0.15%. It also gave a viability, T/C [19] of 45.9%, a viability, T/C [20] of 37.5% and a viability, T/C [21] of 46.5%. It also gave a viability, T/C [22] of 19.9%, a viability, T/C [23] of 0.12% and a viability, T/C [24] of 1.33%. It also gave a viability, T/C [25] of 43.5%, a viability, T/C [26] of 54.4% and a viability, T/C [27] of 31.4%. For the same molecule, the viability, T/C [28] was 13.3%, the viability, T/C [29] was 2.48% and the viability, T/C [30] was 0.22%. For the same molecule, the viability, T/C [31] was 39.9%, the viability, T/C [32] was 41.3% and the viability, T/C [33] was 41.8%. It also gave a viability, T/C [34] of 15.9%, a viability, T/C [35] of 0.24% and a viability, T/C [36] of 0.26%.

Molecule `C=CCn1c(=O)c2cnc(Nc3ccc(N4CCN(C)CC4)cc3)nc2n1-c1cccc(C(C)(C)O)n1` + CN(C)c1ccc(Nc2c3ccc(NC(=O)CCN4CCCC4)cc3nc3cc(NC(=O)CCN4CCCC4)ccc23)cc1 has an IC50 (second compound 0.0316 µM) of 174 nM, an IC50 (second compound 0.1 µM) of 175 nM and an IC50 (second compound 0.316 µM) of 200 nM. The IC50 (second compound 1 µM) was 189 nM, the IC50 (second compound 3.16 µM) was 179 nM and the IC50 (second compound 10 µM) was 184 nM. It also gave a viability, T/C [1] of 107%, a viability, T/C [2] of 81.7% and a viability, T/C [3] of 15.5%. The viability, T/C [4] was 10.1%, the viability, T/C [5] was 9.78% and the viability, T/C [6] was 13%. The viability, T/C [7] was 106%, the viability, T/C [8] was 83.8% and the viability, T/C [9] was 14.5%. For the same molecule, the viability, T/C [10] was 8.74%, the viability, T/C [11] was 8.46% and the viability, T/C [12] was 11.9%. For the same molecule, the viability, T/C [13] was 96.8%, the viability, T/C [14] was 94.4% and the viability, T/C [15] was 20.9%. For the same molecule, the viability, T/C [16] was 8.7%, the viability, T/C [17] was 9.7% and the viability, T/C [18] was 12.2%. It also gave a viability, T/C [19] of 93.1%, a viability, T/C [20] of 99.1% and a viability, T/C [21] of 13%. It also gave a viability, T/C [22] of 9.53%, a viability, T/C [23] of 9.39% and a viability, T/C [24] of 12.5%. The viability, T/C [25] was 110%, the viability, T/C [26] was 85.3% and the viability, T/C [27] was 15.4%. For the same molecule, the viability, T/C [28] was 10.1%, the viability, T/C [29] was 9.74% and the viability, T/C [30] was 14.9%. The viability, T/C [31] was 101%, the viability, T/C [32] was 88.6% and the viability, T/C [33] was 16%. For the same molecule, the viability, T/C [34] was 10.1%, the viability, T/C [35] was 8.2% and the viability, T/C [36] was 12.7%.

In the case of `Cc1cccc(N(C)C(=O)C2C(O)CCN2c2nc(C)cc(C(F)(F)F)c2C#N)c1` (stereo not drawn) + CN(C)c1ccc(Nc2c3ccc(NC(=O)CCN4CCCC4)cc3nc3cc(NC(=O)CCN4CCCC4)ccc23)cc1, the IC50 (second compound 0.0316 µM) is reported as over 10000 nM, the IC50 (second compound 0.1 µM) is reported as over 10000 nM and the IC50 (second compound 0.316 µM) is reported as over 10000 nM. It also gave an IC50 (second compound 1 µM) of over 10000 nM, an IC50 (second compound 3.16 µM) of over 10000 nM and an IC50 (second compound 10 µM) of over 10000 nM. The viability, T/C [1] was 88.8%, the viability, T/C [2] was 99.5% and the viability, T/C [3] was 115%. For the same molecule, the viability, T/C [4] was 109%, the viability, T/C [5] was 105% and the viability, T/C [6] was 100%. The viability, T/C [7] was 94.1%, the viability, T/C [8] was 105% and the viability, T/C [9] was 94.9%. For the same molecule, the viability, T/C [10] was 91.8%, the viability, T/C [11] was 108% and the viability, T/C [12] was 88.7%. For the same molecule, the viability, T/C [13] was 81%, the viability, T/C [14] was 107% and the viability, T/C [15] was 98.9%. It also gave a viability, T/C [16] of 97.6%, a viability, T/C [17] of 102% and a viability, T/C [18] of 104%. For the same molecule, the viability, T/C [19] was 97.1%, the viability, T/C [20] was 93.2% and the viability, T/C [21] was 98.9%. It also gave a viability, T/C [22] of 101%, a viability, T/C [23] of 102% and a viability, T/C [24] of 114%. The viability, T/C [25] was 86.4%, the viability, T/C [26] was 91.7% and the viability, T/C [27] was 106%. It also gave a viability, T/C [28] of 118%, a viability, T/C [29] of 83% and a viability, T/C [30] of 110%. For the same molecule, the viability, T/C [31] was 88.6%, the viability, T/C [32] was 104% and the viability, T/C [33] was 93.7%. The viability, T/C [34] was 120%, the viability, T/C [35] was 98.2% and the viability, T/C [36] was 75.6%.

Work on `COc1ccc([C@@H](O)c2cc(-c3ncnc4cc(N5CCOCC5)ccc34)c(F)cc2Cl)nn1` + Cc1[nH]c2ccc(F)cc2c1-c1nc2c3cccnc3c3ncccc3c2[nH]1 yielded an IC50 (second compound 0.0316 µM) of 4920 nM, an IC50 (second compound 0.1 µM) of 6890 nM and an IC50 (second compound 0.316 µM) of 6470 nM. For the same molecule, the IC50 (second compound 1 µM) was 5920 nM, the IC50 (second compound 3.16 µM) was 4990 nM and the IC50 (second compound 10 µM) was 5740 nM. The viability, T/C [1] was 95.7%, the viability, T/C [2] was 101% and the viability, T/C [3] was 97.2%. For the same molecule, the viability, T/C [4] was 80.9%, the viability, T/C [5] was 66.3% and the viability, T/C [6] was 25.9%. For the same molecule, the viability, T/C [7] was 94.5%, the viability, T/C [8] was 89.9% and the viability, T/C [9] was 104%. For the same molecule, the viability, T/C [10] was 99.5%, the viability, T/C [11] was 85.2% and the viability, T/C [12] was 33.1%. The viability, T/C [13] was 105%, the viability, T/C [14] was 94.8% and the viability, T/C [15] was 103%. For the same molecule, the viability, T/C [16] was 106%, the viability, T/C [17] was 81.5% and the viability, T/C [18] was 30.9%. The viability, T/C [19] was 89.2%, the viability, T/C [20] was 90% and the viability, T/C [21] was 115%. For the same molecule, the viability, T/C [22] was 102%, the viability, T/C [23] was 71.2% and the viability, T/C [24] was 32.4%. It also gave a viability, T/C [25] of 93.4%, a viability, T/C [26] of 92.7% and a viability, T/C [27] of 112%. The viability, T/C [28] was 85.3%, the viability, T/C [29] was 68.6% and the viability, T/C [30] was 23.2%. The viability, T/C [31] was 93.4%, the viability, T/C [32] was 91.4% and the viability, T/C [33] was 114%. The viability, T/C [34] was 88.8%, the viability, T/C [35] was 66.7% and the viability, T/C [36] was 34.9%.
